Measurements reported in PubChem BioAssay (NCI).
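All cell lines were grown in 96-well plates and treated with compound for 48 hours. GI50 = concentration required for 50% inhibition of growth. TGI marks complete inhibition of growth.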

Assays:
Test in all cases: NCI anticancer screen, dose series, 48 h
SK-MEL-2 melanoma = tested on: SK-MEL-2 melanoma
CCRF-CEM leukemia = tested on: CCRF-CEM leukemia
786-0 renal = tested on: 786-0 renal
ACHN renal = tested on: ACHN renal
COLO 205 colon = tested on: COLO 205 colon
LOX IMVI melanoma = tested on: LOX IMVI melanoma
HL-60(TB) leukemia = tested on: HL-60(TB) leukemia
SNB-19 CNS = tested on: SNB-19 CNS

Structure (SMILES) | TGI (SK-MEL-2 melanoma) | TGI (CCRF-CEM leukemia) | TGI (786-0 renal) | TGI (ACHN renal) | TGI (COLO 205 colon) | TGI (LOX IMVI melanoma) | TGI (HL-60(TB) leukemia) | TGI (SNB-19 CNS) | GI50 (SK-MEL-2 melanoma) | GI50 (786-0 renal) | GI50 (ACHN renal) | GI50 (COLO 205 colon) | GI50 (LOX IMVI melanoma) | GI50 (HL-60(TB) leukemia) | GI50 (SNB-19 CNS)
N=CCCN(CCC=N)c1ccc(/C=C2\CN(NC(=O)c3ccc(Cl)cc3)C(c3ccccc3)=N2)cc1 | > 100 µM | > 100 µM | > 100 µM | > 100 µM | > 100 µM | > 100 µM | > 100 µM | > 100 µM | – | – | – | – | – | – | –
C[C@@H](C1CCC2C3C(=CC(=O)[C@@]21C)[C@H](C)[C@]1(CCC(=O)O1)C1OC31)[C@H]1C[C@]2(C)O[C@@](C)(O1)OC2(C)C (stereo not given in full) | – | > 100 µM | > 100 µM | > 100 µM | > 100 µM | > 100 µM | > 100 µM | > 100 µM | – | – | – | – | – | – | –
N#CNC(N)=NCCO | > 100 µM | – | > 100 µM | > 100 µM | > 100 µM | – | > 100 µM | > 100 µM | – | – | – | – | – | – | –
O=C(c1ccccc1)C(c1ccccc1)C1(O)C(=O)Nc2ccccc21 (stereo not given) | > 100 µM | > 100 µM | > 100 µM | > 100 µM | > 100 µM | > 100 µM | > 100 µM | > 100 µM | – | – | – | – | – | – | –
Cc1ccc(NC(=O)CC/C(CC(=O)C(C)(C)C)=N/NC(=O)C(N)=O)cc1C | > 100 µM | > 100 µM | > 100 µM | > 100 µM | > 100 µM | – | > 100 µM | > 100 µM | – | – | – | – | – | – | –
Cc1c(C(=O)CC(=O)C(=O)Nc2c(C(C)C)cccc2C(C)C)[n+](=O)c2ccccc2n1[O-] | 28.4 µM | 7.84 µM | 22.7 µM | 15.3 µM | 15.2 µM | 12.9 µM | 6.91 µM | 37.9 µM | – | – | – | – | – | – | –
Clc1ccccc1C(n1ncc2ccccc21)n1ncc2ccccc21 | > 100 µM | > 100 µM | > 100 µM | > 100 µM | – | > 100 µM | 50.1 µM | > 100 µM | – | – | – | – | – | – | –
O=C1c2cccc3cc([N+](=O)[O-])cc(c23)C(=O)N1NC1=NCCN1 | > 100 µM | > 100 µM | > 100 µM | > 100 µM | > 100 µM | > 100 µM | > 100 µM | > 100 µM | – | – | – | – | – | – | –
Cc1nc2ccccc2c(=O)n1/N=C(\N=Nc1cc(Cl)ccc1Cl)c1cccc(-c2ccco2)c1 | > 100 µM | > 10 µM | > 100 µM | > 100 µM | > 100 µM | > 100 µM | > 10 µM | > 100 µM | – | – | – | – | – | – | –
COc1cc(=O)oc(/C=C/C=O)c1C | – | 88.3 µM | 42 µM | 39.6 µM | 31.6 µM | 16.6 µM | 83.9 µM | 28.5 µM | – | – | – | – | – | – | –
COC(=O)[C@H]1[C@H]2C[C@@H]3c4[nH]c5cc(OC)ccc5c4CCN3C[C@H]2C[C@@H](OC(=O)c2cc(OC)c(OC)c(OC)c2)[C@@H]1OC | 38.1 µM | 44.1 µM | 27.7 µM | > 100 µM | 33.6 µM | – | 30.5 µM | 41 µM | – | – | – | – | – | – | –
CCCN(CCCN)/[N+]([O-])=N\O | > 100 µM | > 100 µM | > 100 µM | > 100 µM | > 100 µM | – | > 100 µM | > 100 µM | – | – | – | – | – | – | –
CN1C(OCc2ccccc2)c2c(ccc3c2OCO3)C2C=Cc3cc4c(cc3C21)OCO4 (stereo not given) | 2.92 µM | 1.05 µM | 2.65 µM | 2.83 µM | 2.2 µM | 0.337 µM | – | 3.06 µM | – | – | – | – | – | – | –
CC1(C)OC(=O)[C@@](C)([C@H](O)c2ccccc2)O1 | > 100 µM | > 100 µM | > 100 µM | > 100 µM | – | – | > 100 µM | > 100 µM | – | – | – | – | – | – | –
[C-]#[O+].[Cl][Sn]([Cl])[Cl].[Cl][Sn]([Cl])[Cl].[Pt].c1ccc([PH+](c2ccccc2)c2ccccc2)cc1.c1ccc([PH+](c2ccccc2)c2ccccc2)cc1 | > 100 µM | – | > 100 µM | > 100 µM | > 100 µM | 41 µM | 69.1 µM | > 100 µM | 34 µM | 53.5 µM | 26.4 µM | > 100 µM | 14.2 µM | 25.4 µM | 34.5 µM
O=C(O)C1CCc2nnc(-c3ccccc3)n21 (stereo not given) | > 100 µM | > 100 µM | > 100 µM | > 100 µM | > 100 µM | – | > 100 µM | > 100 µM | – | – | – | – | – | – | –
CN(C)c1ccc2c(c1)CN1C(=O)c3ccccc3C1=N2 | > 100 µM | – | > 100 µM | > 100 µM | > 100 µM | > 100 µM | > 100 µM | > 100 µM | > 100 µM | > 100 µM | > 100 µM | > 100 µM | > 100 µM | > 100 µM | > 100 µM
Nc1ncnc2c1ncn2C1OC(CSC(F)(F)F)C(O)C1O (stereo not given) | > 100 µM | > 100 µM | > 100 µM | > 100 µM | > 100 µM | > 100 µM | > 100 µM | – | – | – | – | – | – | – | –
CC1(C)CCC[C@@]2(C)C1C[C@H](O)[C@@]1(C)O[C@@](C)([C@H](O)CO)CCC21 (stereo not given in full) | 60 µM | > 100 µM | > 100 µM | 74.9 µM | 56.5 µM | – | 48.1 µM | > 100 µM | – | – | – | – | – | – | –
